Data published in US12258337B2, “Bicyclic CX3CR1 receptor agonists” (Board of Regents, The University of Texas System, priority 2019, dated 2025).

How the values were obtained:
Assay type in all cases: cell-based
hCX3CR1 [1] = molecular target: T1, hCX3CR1 (Homo sapiens, UniProt P49238); test: ChAMPion assay (CHO ChAMPion/CX3CR1 K1.6, cAMP/CNG channel, photoprotein luminescence); set-up: expressed in transfected cells; stably expresses a Ca2+ sensitive photo-protein; settings: ChAMPion assay, CHO ChAMPion/CX3CR1 K1.6, Forskolin 3 μM; read-out: hCX3CR1 agonism EC50
T1 sequence (P49238 1-355): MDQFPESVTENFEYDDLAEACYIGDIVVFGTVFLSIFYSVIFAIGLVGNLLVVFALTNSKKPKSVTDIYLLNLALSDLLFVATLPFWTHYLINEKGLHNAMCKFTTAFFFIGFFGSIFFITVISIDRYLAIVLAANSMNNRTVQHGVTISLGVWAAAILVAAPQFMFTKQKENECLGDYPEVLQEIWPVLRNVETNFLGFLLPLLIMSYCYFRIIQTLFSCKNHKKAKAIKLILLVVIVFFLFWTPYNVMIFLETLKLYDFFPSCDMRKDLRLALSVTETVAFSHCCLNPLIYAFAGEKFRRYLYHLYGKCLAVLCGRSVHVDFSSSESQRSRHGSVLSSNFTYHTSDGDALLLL
Protocol: Buffers and reagents. PBS (D-PBS without calcium and magnesium; EuroClone); Trypsin (Trypsin 0.05%, EDTA 0.02% in PBS; EuroClone); DMSO (Sigma); Tyrode buffer Ca^2+ free: in-house solution (130 mM NaCl, 5 mM KCl, 1 mM MgCl^2, 5 mM NaHCO3, 20 mM HEPES (pH 7.4); sterile filtered and autoclaved); Tyrode buffer 10 mM Ca^2+: in-house solution (130 mM NaCl, 5 mM KCl, 10 mM CaCl2), 1 mM MgCl2, 5 mM NaHCO3, 20 mM HEPES, in water at pH 7.4, sterile filtered); Coelenterazine, native (Biosynth); stock 10 mM; Agonist: Recombinant Human Fractalkine (CX3CL1) (PeproTech); stock: 10 μM in standard Tyrode buffer/BSA 01%; stored at −20° C.
Cell line. The final clone for the hCX3CR1 assay was CHO ChAMPion/CX3CR1 K1.6. ChAMPion technology is based on the co-expression of a Ca^2+ sensitive photoprotein and of a cyclic nucleotide-gated (CNG) channel acting as a cAMP biosensor in a CHO-K1 cell line. CNG channels are non-selective ligand gated cation channels that can be opened by the direct interaction with either cAMP or cGMP, at the intracellular C-terminus site of the channel. Channel opening allows the flux of extracellular calcium into the cell cytoplasm and its transient elevation can be recorded by means of several different calcium indicators. In the chAMPion system, the CNG channel has been modified to display sensitivity to cAMP levels in the physiological range. In addition the calcium influx through the opened channel is immediately detected by the recording of the photoprotein-emitted flash type luminescence signal.
The chAMPion cell line system can monitor the activation of transfected Gαi-coupled receptors, which elicit changes in 3,‘5’-adenosine cyclic monophosphate (cAMP) levels, which in turn is responsible for CNG opening and consequent Ca^2+ influx.
Assay protocol. Experiments were performed in 384 MTP format. Cells were seeded at 10,000 cells/well in 25 μL/well complete growth medium without selection antibiotics in 384-well plates. Twenty-four hours later, cells were assayed for the response to various compounds using the Ca^2+ sensitive photo-protein stably expressed in the cells as readout.
The experiment was performed in a 384-well format according to the following procedure: • 24h after seeding, pre-incubate the cells at room temperature for 1 hour. • Then remove the culture medium. • Load cells with 20 μL/well of Ca^2+ free tyrode buffer+ceolenterazine 5 μM. • Incubate cell plates for 4 hours at RT. • 10 μl/well of 3× concentrated compounds in Ca^2+ free tyrode buffer+Forskolin 9 μM (final Forskolin concentration=3 μM) are applied to the cells (at 10 μl/s). Ten minutes later a second injection is performed: 10 μl/well of Ca^2+ free tyrode buffer+BSA 0.04% (final BSA concentration=0.01%). Twenty minutes later a third injection is performed: 20 μl/well of 10 mM Ca^2+ tyrode buffer (final Ca^2+ concentration was 3.3 mM) and luminescence is recorded for 90 seconds.
Data from FLIPRTETRA measurements are analyzed with the Genedata Screener© software.

hCX3CR1 [2] = molecular target: T1, hCX3CR1; test: Ga16 assay, CX3CR1 agonism, Ca2+ sensitive photo-protein readout (FLIPRTETRA); set-up: expressed in transfected cells; stably expresses a Ca2+ sensitive photo-protein; settings: human CX3CR1 cell line
Procedure, shortened: (§1)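 Cells expressing human, mouse or rat CX3CR1 with a stably expressed Ca2+-sensitive photoprotein were loaded with 10 μM coelenterazine in tyrode buffer pH 7.4 for 3 h at room temperature. Agonist-mode luminescence kinetics were recorded for 90 s after compound injection on FLIPRTETRA. Dose-response runs were done in quadruplicate, with fractalkine as the reference agonist.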

mCX3CR1 = molecular target: T2, mCX3CR1 (Mus musculus, UniProt Q9Z0D9); test: as above; settings: mouse CX3CR1 cell line
T2 construct: expressed in transfected cells; stably expresses a Ca2+ sensitive photo-protein
T2 sequence (Q9Z0D9 1-354): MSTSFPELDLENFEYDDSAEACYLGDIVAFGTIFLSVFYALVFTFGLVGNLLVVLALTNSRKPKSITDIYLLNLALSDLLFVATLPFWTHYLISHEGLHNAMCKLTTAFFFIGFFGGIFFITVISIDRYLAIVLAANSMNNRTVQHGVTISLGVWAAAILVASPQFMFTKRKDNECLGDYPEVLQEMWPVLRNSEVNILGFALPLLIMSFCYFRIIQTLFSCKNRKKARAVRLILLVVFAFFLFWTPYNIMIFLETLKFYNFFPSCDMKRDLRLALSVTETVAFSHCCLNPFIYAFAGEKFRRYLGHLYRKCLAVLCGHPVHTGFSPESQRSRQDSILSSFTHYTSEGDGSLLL
Procedure, shortened: as §1

rCX3CR1 = molecular target: T3, rCX3CR1 (Rattus norvegicus, UniProt P35411); test: as above; settings: rat CX3CR1 cell line
T3 construct: expressed in transfected cells; stably expresses a Ca2+ sensitive photo-protein
T3 sequence (P35411 1-354): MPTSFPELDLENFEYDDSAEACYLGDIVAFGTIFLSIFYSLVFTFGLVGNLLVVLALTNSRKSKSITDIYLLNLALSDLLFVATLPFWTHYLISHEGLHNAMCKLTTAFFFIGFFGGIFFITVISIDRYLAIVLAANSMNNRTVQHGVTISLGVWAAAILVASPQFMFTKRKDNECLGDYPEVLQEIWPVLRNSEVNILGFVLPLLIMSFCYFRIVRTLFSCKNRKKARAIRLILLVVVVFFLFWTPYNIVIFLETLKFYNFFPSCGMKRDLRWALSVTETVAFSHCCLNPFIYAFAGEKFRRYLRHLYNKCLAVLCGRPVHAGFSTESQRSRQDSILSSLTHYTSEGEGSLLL
Procedure, shortened: as §1

An EC50 (hCX3CR1 [1]) of 36.5 µM, an EC50 (hCX3CR1 [2]) of 13.7 µM and an EC50 (mCX3CR1) of 46.9 µM were found for CN(CCO)CC1(CNC(=O)c2cc3c(s2)CCCCC3)CCCC1 [Example 34, N-[[1-[[2-hydroxyethyl(methyl)amino]methyl]cyclopentyl]methyl]-5,6,7,8-tetrahydro-4H-cyclohepta[b]thiophene-2-carboxamide] in this work. For the same molecule, the EC50 (rCX3CR1) was 12.9 µM.

An EC50 (hCX3CR1 [1]) of 1.3 µM, an EC50 (hCX3CR1 [2]) of 11.8 µM and an EC50 (mCX3CR1) of 18.2 µM were found for CN(CCO)CC1(CNC(=O)c2cc3c(s2)CCCCCC3)CCCC1 [Example 17, N-[[1-[[2-hydroxyethyl(methyl)amino]methyl]cyclopentyl]methyl]-4,5,6,7,8,9-hexahydrocycloocta[b]thiophene-2-carboxamide] in this work. The EC50 (rCX3CR1) was 15.7 µM.

An EC50 (hCX3CR1 [1]) of 4.5 µM, an EC50 (hCX3CR1 [2]) of 15.1 µM and an EC50 (mCX3CR1) of 18.1 µM were found for CCCN(C)CC1(CNC(=O)c2cc3c(s2)CCCCCC3)CCCC1 [Example 6, N-[[1-[[methyl(propyl)amino]methyl]cyclopentyl]methyl]-4,5,6,7,8,9-hexahydrocycloocta[b]thiophene-2-carboxamide] in this work. The EC50 (rCX3CR1) was 14.6 µM.

An EC50 (hCX3CR1 [1]) of 4.3 µM, an EC50 (hCX3CR1 [2]) of 27.3 µM and an EC50 (mCX3CR1) of 58.1 µM were found for O=C(NCC1(CN2CCCC2)CCC1)c1cc2c(s1)CCCCCCC2 [Example 26, N-[[1-(pyrrolidin-1-ylmethyl)cyclobutyl]methyl]-5,6,7,8,9,10-hexahydro-4H-cyclonona[b]thiophene-2-carboxamide] in this work. The EC50 (rCX3CR1) was 46.7 µM.

An EC50 (hCX3CR1 [1]) of 0.94 µM, an EC50 (hCX3CR1 [2]) of 11 µM and an EC50 (mCX3CR1) of 24.9 µM were found for O=C(NCC1(CN2CCCC2)CCCCC1)c1cc2c(s1)CCCCCC2 [Example 18, N-[[1-(pyrrolidin-1-ylmethyl)cyclohexyl]methyl]-4,5,6,7,8,9-hexahydrocycloocta[b]thiophene-2-carboxamide] in this work. The EC50 (rCX3CR1) was 23.7 µM.

An EC50 (hCX3CR1 [1]) of 11.2 µM, an EC50 (hCX3CR1 [2]) of 16.2 µM and an EC50 (mCX3CR1) of 17.1 µM were found for CCC(CC)(CNC(=O)c1cc2c(s1)CCCCCC2)CN(C)C [Example 8, N-[2-[(dimethylamino)methyl]-2-ethylbutyl]-4,5,6,7,8,9-hexahydrocycloocta[b]thiophene-2-carboxamide] in this work. For the same molecule, the EC50 (rCX3CR1) was 20 µM.

An EC50 (hCX3CR1 [1]) of 6.3 µM, an EC50 (hCX3CR1 [2]) of 20.5 µM and an EC50 (mCX3CR1) of 15.4 µM were found for O=C(NCC1(CN2CCCC2)Cc2ccccc2C1)c1cc2c(s1)CCCCCC2 [Example 11, N-[[2-(pyrrolidin-1-ylmethyl)-1,3-dihydroinden-2-yl]methyl]-4,5,6,7,8,9-hexahydrocycloocta[b]thiophene-2-carboxamide] in this work. It also gave an EC50 (rCX3CR1) of 19.6 µM.

An EC50 (hCX3CR1 [1]) of 4 µM, an EC50 (hCX3CR1 [2]) of 17.4 µM and an EC50 (mCX3CR1) of 44.4 µM were found for CN(C)CC1(CNC(=O)c2ccc3c(c2)CCCCCC3)CCCC1 [Example 33, N-[[1-[(dimethylamino)methyl]cyclopentyl]methyl]-5,6,7,8,9,10-hexahydrobenzo[8]annulene-3-carboxamide] in this work. It also gave an EC50 (rCX3CR1) of 22.7 µM.

An EC50 (hCX3CR1 [1]) of 4.8 µM, an EC50 (hCX3CR1 [2]) of 18.7 µM and an EC50 (mCX3CR1) of 46.3 µM were found for CN(CCO)CC1(CNC(=O)c2cc3c(s2)CCCCCCC3)CCCC1 [Example 29, N-[[1-[[2-hydroxyethyl(methyl)amino]methyl]cyclopentyl]methyl]-5,6,7,8,9,10-hexahydro-4H-cyclonona[b]thiophene-2-carboxamide] in this work. For the same molecule, the EC50 (rCX3CR1) was 47 µM.

An EC50 (hCX3CR1 [1]) of 1.9 µM, an EC50 (hCX3CR1 [2]) of 14.3 µM and an EC50 (mCX3CR1) of 30.6 µM were found for CN(C)CC1(CNC(=O)c2cc3c(s2)CCCCCC3)CCOCC1 [Example 19, N-[[4-[(dimethylamino)methyl]oxan-4-yl]methyl]-4,5,6,7,8,9-hexahydrocycloocta[b]thiophene-2-carboxamide] in this work. The EC50 (rCX3CR1) was 27.9 µM.

An EC50 (hCX3CR1 [1]) of 10.6 µM, an EC50 (hCX3CR1 [2]) of 24.6 µM and an EC50 (mCX3CR1) of 50.9 µM were found for CC(C)(CNC(=O)c1cc2c(s1)CCCCCCC2)CN1CCCC1 [Example 24, N-(2,2-dimethyl-3-pyrrolidin-1-ylpropyl)-5,6,7,8,9,10-hexahydro-4H-cyclonona[b]thiophene-2-carboxamide] in this work. It also gave an EC50 (rCX3CR1) of 59.9 µM.

An EC50 (hCX3CR1 [1]) of 2.8 µM, an EC50 (hCX3CR1 [2]) of 14.6 µM and an EC50 (mCX3CR1) of 16.2 µM were found for O=C(NCC1(CN2CCCC2)CC1)c1cc2c(s1)CCCCCC2 [Example 4, N-[[1-(pyrrolidin-1-ylmethyl)cyclopropyl]methyl]-4,5,6,7,8,9-hexahydrocycloocta[b]thiophene-2-carboxamide] in this work. For the same molecule, the EC50 (rCX3CR1) was 15.4 µM.

An EC50 (hCX3CR1 [1]) of 4.1 µM, an EC50 (hCX3CR1 [2]) of 11 µM and an EC50 (mCX3CR1) of 11.8 µM were found for CCC(CC)(CNC(=O)c1cc2c(s1)CCCCCC2)CN1CCCC1 [Example 9, N-[2-ethyl-2-(pyrrolidin-1-ylmethyl)butyl]-4,5,6,7,8,9-hexahydrocycloocta[b]thiophene-2-carboxamide] in this work. For the same molecule, the EC50 (rCX3CR1) was 14.9 µM.

An EC50 (hCX3CR1 [1]) of 6.2 µM, an EC50 (hCX3CR1 [2]) of 13.3 µM and an EC50 (mCX3CR1) of 9.1 µM were found for CCN(CC)CC1(CNC(=O)c2cc3c(s2)CCCCCC3)CCCC1 [Example 12, N-[[1-(diethylaminomethyl)cyclopentyl]methyl]-4,5,6,7,8,9-hexahydrocycloocta[b]thiophene-2-carboxamide] in this work. It also gave an EC50 (rCX3CR1) of 12.2 µM.

An EC50 (hCX3CR1 [1]) of 1.7 µM, an EC50 (hCX3CR1 [2]) of 8.8 µM and an EC50 (mCX3CR1) of 20.9 µM were found for O=C(NCC1(CN2CCCC2)CCOCC1)c1cc2c(s1)CCCCCC2 [Example 20, N-[[4-(pyrrolidin-1-ylmethyl)oxan-4-yl]methyl]-4,5,6,7,8,9-hexahydrocycloocta[b]thiophene-2-carboxamide] in this work. The EC50 (rCX3CR1) was 19.2 µM.

An EC50 (hCX3CR1 [1]) of 6.6 µM, an EC50 (hCX3CR1 [2]) of 13.6 µM and an EC50 (mCX3CR1) of 103 µM were found for CCN(CC)CC(C)(C)CNC(=O)c1cc2c(s1)CCCCCC2 [Example 16, N-[3-(diethylamino)-2,2-dimethylpropyl]-4,5,6,7,8,9-hexahydrocycloocta[b]thiophene-2-carboxamide] in this work. The EC50 (rCX3CR1) was 19.7 µM.
